According to ChEMBL document CHEMBL1201862, “PubChem BioAssay data set” (2004):
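All cell lines were grown in 96-well plates and treated with compound for 48 hours. GI50 marks 50% less growth.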 The source made the active and inactive calls. No stated cut-off is given here; in the data, active = GI50 up to about 1.1 µM and inactive = higher.

Legend:
Assay in all cases: NCI-60 cell line screen, 48 h
MDA-MB-435 = test system: MDA-MB-435
ACHN = test system: ACHN
DU-145 = test system: DU-145
PC-3 = test system: PC-3
SK-MEL-5 = test system: SK-MEL-5
SW-620 = test system: SW-620
OVCAR-3 = test system: OVCAR-3
UACC-62 = test system: UACC-62
SK-MEL-2 = test system: SK-MEL-2
A549 = test system: A549
HOP-62 = test system: HOP-62
SK-OV-3 = test system: SK-OV-3
NCI-H522 = test system: NCI-H522
T47D = test system: T47D
SF-268 = test system: SF-268
RPMI-8226 = test system: RPMI-8226
U-251 = test system: U-251
IGROV-1 = test system: IGROV-1
MDA-MB-231 = test system: MDA-MB-231
SNB-75 = test system: SNB-75

Measured: GI50

C/C(=N\Nc1nc2ccccc2s1)c1cccc[n+]1[O-]
inactive: MDA-MB-435 99.1 µM | ACHN 37.1 µM | DU-145 > 100 µM | PC-3 33 µM | SK-MEL-5 32.8 µM | SW-620 32.7 µM | OVCAR-3 24.8 µM | UACC-62 50.1 µM | SK-MEL-2 > 100 µM | A549 42.8 µM | HOP-62 48.3 µM | SK-OV-3 37.4 µM | NCI-H522 26.7 µM | T47D 30.8 µM | SF-268 36.2 µM | RPMI-8226 41.1 µM | U-251 47 µM | IGROV-1 21.7 µM | MDA-MB-231 49.9 µM

COc1ccc(Nc2nc(NNC(=O)Cc3ccccc3)nc(NNC(=O)c3ccncc3)n2)cc1
inactive: MDA-MB-435 > 10 µM | ACHN > 10 µM | DU-145 > 10 µM | SK-MEL-5 > 10 µM | SW-620 > 10 µM | OVCAR-3 > 10 µM | UACC-62 1.95 µM | A549 > 10 µM | HOP-62 > 10 µM | SK-OV-3 > 10 µM | NCI-H522 > 10 µM | T47D > 10 µM | SF-268 > 10 µM | U-251 > 10 µM | IGROV-1 > 10 µM | MDA-MB-231 > 10 µM | SNB-75 > 10 µM

O=C(O)CCSc1ncnc2[nH]cnc12
inactive: MDA-MB-435 > 100 µM | ACHN > 100 µM | DU-145 > 100 µM | PC-3 > 100 µM | SK-MEL-5 > 100 µM | SW-620 > 100 µM | OVCAR-3 > 100 µM | UACC-62 > 100 µM | SK-MEL-2 > 100 µM | A549 > 100 µM | HOP-62 > 100 µM | SK-OV-3 > 100 µM | NCI-H522 > 100 µM | T47D > 100 µM | SF-268 > 100 µM | RPMI-8226 > 100 µM | U-251 > 100 µM | IGROV-1 > 100 µM | MDA-MB-231 > 100 µM

Cc1ccc(/C=N/Nc2cnccn2)s1
inactive: MDA-MB-435 > 100 µM | ACHN > 100 µM | PC-3 > 100 µM | SK-MEL-5 > 100 µM | SW-620 > 100 µM | OVCAR-3 > 100 µM | UACC-62 > 100 µM | SK-MEL-2 > 100 µM | A549 > 100 µM | HOP-62 > 100 µM | SK-OV-3 > 100 µM | NCI-H522 83 µM | T47D > 100 µM | SF-268 > 100 µM | RPMI-8226 > 100 µM | U-251 > 100 µM | IGROV-1 > 100 µM | MDA-MB-231 96.2 µM | SNB-75 > 100 µM

O=C(O)[C@@]1(Cc2ccc(O)cc2)C[C@@H]2Cc3ccccc3N2N1
inactive: MDA-MB-435 > 100 µM | ACHN > 100 µM | DU-145 > 100 µM | PC-3 > 100 µM | SK-MEL-5 > 100 µM | SW-620 > 100 µM | OVCAR-3 > 100 µM | UACC-62 > 100 µM | SK-MEL-2 > 100 µM | A549 > 100 µM | HOP-62 > 100 µM | SK-OV-3 > 100 µM | NCI-H522 > 100 µM | T47D > 100 µM | SF-268 > 100 µM | RPMI-8226 > 100 µM | U-251 > 100 µM | IGROV-1 > 100 µM | MDA-MB-231 > 100 µM

CCOC(OCC)C(CC)[Se]c1ccccc1[N+](=O)[O-] (centres undefined)
inactive: ACHN 11.3 µM | DU-145 3.95 µM | PC-3 3.27 µM | SK-MEL-5 2.42 µM | SW-620 2.5 µM | OVCAR-3 2.45 µM | UACC-62 2.44 µM | SK-MEL-2 6.34 µM | A549 4.79 µM | HOP-62 3.08 µM | SK-OV-3 2.31 µM | NCI-H522 1.72 µM | T47D 9.06 µM | SF-268 8.04 µM | RPMI-8226 3.44 µM | U-251 2.51 µM | IGROV-1 3.48 µM | MDA-MB-231 9.2 µM | SNB-75 3.45 µM

CC[C@@H]1CN2CCC1C[C@@H]2C(O)c1ccnc2ccc(OCCN3CCN(CCOc4ccc5nccc(C(O)[C@@H]6C[C@@H]7CCN6C[C@@H]7CC)c5c4)CC3)cc12 (some centres undefined)
inactive: MDA-MB-435 13.8 µM | ACHN 15.1 µM | DU-145 17.5 µM | PC-3 15.9 µM | SK-MEL-5 15 µM | SW-620 21.8 µM | OVCAR-3 19.6 µM | UACC-62 16.1 µM | SK-MEL-2 19.9 µM | A549 15.3 µM | HOP-62 18.5 µM | SK-OV-3 18.3 µM | NCI-H522 12 µM | T47D 19.7 µM | SF-268 18.4 µM | RPMI-8226 2.59 µM | U-251 16.7 µM | IGROV-1 13.9 µM | MDA-MB-231 15.9 µM

O=C(O)c1ccc(N/C(=C(/C(Cl)=C(Cl)Cl)[N+](=O)[O-])n2nnc3ccccc32)cc1
inactive: MDA-MB-435 > 100 µM | ACHN > 100 µM | PC-3 > 100 µM | SW-620 > 100 µM | OVCAR-3 > 100 µM | UACC-62 > 100 µM | SK-MEL-2 > 100 µM | A549 > 100 µM | HOP-62 > 100 µM | SK-OV-3 > 100 µM | T47D > 100 µM | SF-268 > 100 µM | RPMI-8226 > 100 µM | U-251 > 100 µM | MDA-MB-231 > 100 µM

C[C@]12CC[C@H]3[C@@H](CCC4=CC(=O)C=C[C@@]43O)[C@@H]1CCC2=O
inactive: MDA-MB-435 > 100 µM | ACHN > 100 µM | DU-145 > 100 µM | PC-3 > 100 µM | SK-MEL-5 82 µM | SW-620 > 100 µM | OVCAR-3 > 100 µM | UACC-62 60.1 µM | SK-MEL-2 77.4 µM | A549 62.1 µM | HOP-62 > 100 µM | T47D > 100 µM | RPMI-8226 > 100 µM | U-251 > 100 µM | IGROV-1 94 µM | MDA-MB-231 > 100 µM | SNB-75 > 100 µM

Cc1cccc2c(=O)c3cccc([C@H](C)C(=O)O)c3oc12
inactive: MDA-MB-435 > 100 µM | ACHN > 100 µM | DU-145 > 100 µM | PC-3 > 100 µM | SK-MEL-5 > 100 µM | SW-620 > 100 µM | OVCAR-3 > 100 µM | UACC-62 > 100 µM | SK-MEL-2 > 100 µM | A549 > 100 µM | HOP-62 > 100 µM | SK-OV-3 > 100 µM | NCI-H522 > 100 µM | T47D > 100 µM | SF-268 > 100 µM | RPMI-8226 > 100 µM | U-251 > 100 µM | IGROV-1 > 100 µM | MDA-MB-231 > 100 µM

O=[N+]([O-])/C(Cl)=C(\NCCN/C(C(Cl)=C(Cl)Cl)=C(/Cl)[N+](=O)[O-])C(Cl)=C(Cl)Cl
inactive: MDA-MB-435 87.1 µM | ACHN > 100 µM | DU-145 > 100 µM | PC-3 43.6 µM | SW-620 47.5 µM | OVCAR-3 16.5 µM | UACC-62 31.2 µM | A549 45.2 µM | HOP-62 71.8 µM | SK-OV-3 69.5 µM | T47D 51.2 µM | SF-268 40.8 µM | RPMI-8226 17.7 µM | U-251 48.8 µM | IGROV-1 62.7 µM | MDA-MB-231 52.1 µM | SNB-75 35.5 µM
